How the values were obtained:
Format in all cases: in vivo
[1] = test system: soybeans; assay: Crop tolerance, soybeans; details: 50% or less kill of crop at rates giving more than 50% kill of weeds
Method: (§1) The following test procedure is employed. Seeds of selected crops and weeds are planted in soil in flats. For preemergence tests, the flats are treated with the test compound immediately after the planting. For postemergence tests, the seeds are allowed to germinate, and after 2 weeks the flats are treated with the test compound. The compound to be evaluated is dissolved in acetone, diluted with water, and sprayed over the flats using a carrier volume equivalent to 50 gallons per acre at the rate of application (pounds per acre, lb/A.) specified in the tables. About 2 weeks after the application of the test compound, the state of growth of the plants is observed and the phytotoxic effect of the compound is evaluated. Table II gives the average percent control achieved by the test compounds in terms of the percent of the plants which are killed by the compounds.
(§2) Following the general test procedure of Example 73, diphenyl ethers are evaluated for significant tolerance (as shown by 50% or less kill of the test crop at levels of application which give more than 50% kill of many or all of the weeds of Example 73) towards some or all of the following common agronomic crops (not all compounds tested against all crops): alfalfa, snapbeans, corn, cotton, cucumbers, peanuts, rape, rice, safflower, soybeans, tomatoes, and wheat.

[2] = test system: Dicots; assay: Herbicidal activity, preemergence, dicot weeds (Table II); details: pre-emergence, 336 h, about 2 weeks, read-out: % control (percent of plants killed); for pest or weed control at 4483.4 g/ha: 4 lb./A.; for pest or weed control at 2241.7 g/ha: 2 lb./A.
How it was run: (§3)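 Compound in acetone/water sprayed on seeded soil flats at 50 gal/acre carrier and the stated lb/A rate, either right after planting (preemergence) or 2 weeks after germination (postemergence). About 2 weeks later, percent control recorded as the percentage of plants killed.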

[3] = test system: Dicots; assay: Herbicidal activity, postemergence, dicot weeds (Table II); details: post-emergence, 336 h, about 2 weeks, read-out: % control (percent of plants killed); for pest or weed control at 4483.4 g/ha: 4 lb./A.; for pest or weed control at 2241.7 g/ha: 2 lb./A.
How it was run: as §3

[4] = test system: Monocots; assay: Herbicidal activity, postemergence, monocot weeds (Table II); details: post-emergence, 336 h, about 2 weeks, read-out: % control (percent of plants killed); for pest or weed control at 4483.4 g/ha: 4 lb./A.; for pest or weed control at 2241.7 g/ha: 2 lb./A.
How it was run: (§4)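 Seeds planted in soil flats; sprayed immediately after planting (pre) or 2 weeks after germination (post), compound in acetone diluted with water, 50 gal/A carrier volume at rates in lb/A. Phytotoxicity scored about 2 weeks after application as average percent of plants killed.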

[5] = test system: rice; assay: Crop tolerance, rice; details: 50% or less kill of crop at rates giving more than 50% kill of weeds
Method: as §1, §2

[6] = test system: cotton; assay: Crop tolerance, cotton; details: 50% or less kill of crop at rates giving more than 50% kill of weeds
Method: as §1, §2

[7] = test system: Monocots; assay: Herbicidal activity, preemergence, monocot weeds (Table II); details: pre-emergence, 336 h, about 2 weeks, read-out: % control (percent of plants killed); for pest or weed control at 4483.4 g/ha: 4 lb./A.; for pest or weed control at 2241.7 g/ha: 2 lb./A.
How it was run: as §4

[8] = test system: peanuts; assay: Crop tolerance, peanuts; details: 50% or less kill of crop at rates giving more than 50% kill of weeds
Method: as §1, §2

[9] = test system: safflower; assay: Crop tolerance, safflower; details: preemergence; 50% or less kill of crop at rates giving more than 50% kill of weeds
Method: as §1, §2

[10] = test system: corn; assay: Crop tolerance, corn; details: 50% or less kill of crop at rates giving more than 50% kill of weeds
Method: as §1, §2

[11] = test system: snapbeans; assay: Crop tolerance, snapbeans; details: preemergence; 50% or less kill of crop at rates giving more than 50% kill of weeds
Method: as §1, §2

[12] = test system: wheat; assay: Crop tolerance, wheat; details: 50% or less kill of crop at rates giving more than 50% kill of weeds
Method: as §1, §2

[13] = postemergence or on transplanted rice

Compound | Tolerance to soybeans ([1]; preemergence) | pest or weed control at 4483.4 g/ha [2] | pest or weed control at 4483.4 g/ha [3] | pest or weed control at 4483.4 g/ha [4] | Tolerance to rice [5, 13] | Tolerance to cotton ([6]; preemergence) | pest or weed control at 4483.4 g/ha [7] | Tolerance to peanuts ([8]; preemergence) | Tolerance to corn ([10]; postemergence) | Tolerance to corn ([10]; preemergence) | Tolerance to wheat ([12]; postemergence) | Tolerance to wheat ([12]; preemergence) | Tolerance to rice ([5]; preemergence) | Tolerance to peanuts ([8]; postemergence) | pest or weed control at 2241.7 g/ha [2] | pest or weed control at 2241.7 g/ha [3] | pest or weed control at 2241.7 g/ha [4] | pest or weed control at 2241.7 g/ha [7] | also measured
CCOc1cc(Oc2ccc(C(F)(F)F)cc2Cl)ccc1[N+](=O)[O-] [Example 3, 2-Chloro-α,α,α-trifluoro-p-tolyl-3-ethoxy-4-nitrophenyl ether] | Tolerance | 99% | 100% | 99% | Tolerance | Tolerance | 89% | Tolerance |  |  |  |  |  |  |  |  |  |  | Tolerance to soybeans ([1]; postemergence or layby): Tolerance; pest or weed control at 11208.5 g/ha ([2]; 10 lb./A.): 100%; pest or weed control at 11208.5 g/ha ([3]; 10 lb./A.): 100%; pest or weed control at 11208.5 g/ha ([4]; 10 lb./A.): 100%; Tolerance to cotton ([6]; postemergence or layby): Tolerance; pest or weed control at 11208.5 g/ha ([7]; 10 lb./A.): 99%; Tolerance to safflower [9]: Tolerance
CC(C)Oc1cc(Oc2ccc(C(F)(F)F)cc2Cl)ccc1[N+](=O)[O-] [Example 4] | Tolerance | 100% | 100% | 80% |  | Tolerance | 98% |  | Tolerance | Tolerance | Tolerance | Tolerance | Tolerance | Tolerance |  |  |  |  | Tolerance to snapbeans [11]: Tolerance
CCOC(=O)C(C)Oc1cc(Oc2ccc(C(F)(F)F)cc2Cl)ccc1[N+](=O)[O-] (stereo not drawn) [Example 26, 2-Chloro-α,α,α-trifluoro-p-tolyl-3-(1-carbethoxyethoxy)-4-nitrophenyl ether] | Tolerance | 100% | 100% | 99% |  |  | 98% |  | Tolerance |  |  | Tolerance |  |  | 99% | 100% | 93% | 75% | Tolerance to snapbeans [11]: Tolerance
C#CC(C)Oc1cc(Oc2ccc(C(F)(F)F)cc2Cl)ccc1[N+](=O)[O-] (centres unmarked) [Example 30] | Tolerance | 99% | 100% | 75% | Tolerance | Tolerance | 81% | Tolerance |  |  | Tolerance |  | Tolerance |  | 94% | 100% | 91% | 78% | 
CCC(=O)Nc1cc(Oc2ccc(C(F)(F)F)cc2Cl)ccc1[N+](=O)[O-] [Example 34] | Tolerance | 52% | 89% | 32% | Tolerance |  | 35% | Tolerance | Tolerance | Tolerance | Tolerance | Tolerance | Tolerance | Tolerance | 85% | 90% | 47% | 83% | Tolerance to soybeans ([1]; postemergence or layby): Tolerance
CSCCOc1cc(Oc2ccc(C(F)(F)F)cc2Cl)ccc1[N+](=O)[O-] [Example 40] | Tolerance | 92% | 100% | 64% | Tolerance |  | 86% | Tolerance | Tolerance | Tolerance |  | Tolerance | Tolerance | Tolerance | 98% | 100% | 81% | 88% | 
CCN(CCO)c1cc(Oc2ccc(C(F)(F)F)cc2Cl)ccc1[N+](=O)[O-] [Example 54] | Tolerance | 75% | 100% | 79% | Tolerance |  | 83% |  | Tolerance | Tolerance | Tolerance | Tolerance | Tolerance | Tolerance | 98% | 100% | 71% | 98% | 
